What was measured:
[1] = target: TRIM24-BRAF fusion protein (Homo sapiens, UniProt P15056); details: NIH3T3 cells stably expressing TRIM24-BRAF, serum-starved, treated for 2 hours; FIG. 10C
Description: NIH3T3 cells stably transduced with plasmids expressing EZR-ERBB4 or TRIM24-BRAF cDNA or with empty plasmids were maintained in a serum-free medium overnight, and then treated with DMSO (Sigma) or the indicated inhibitor (dissolved in DMSO) for 2 hours. Whole-cell lysates were subjected to immunoblotting.
Cells were lysed in a RIPA buffer supplemented with Complete Protease and PhosSTOP Phosphatase Inhibitor Cocktail (Roche, Mannheim, Germany). Proteins were subjected to SDS-PAGE, followed by immunoblotting onto polyvinylidene difluoride membranes. The membranes were blocked for one hour with TBS supplemented with 0.1% Tween 20 and 1.0% BSA, and then probed with primary antibodies. After washing with TBS supplemented with 0.1% Tween 20, the membranes were incubated with horseradish peroxidase-conjugated anti-mouse or anti-rabbit secondary antibodies, and then visualized with an enhanced chemiluminescence reagent (Perkin Elmer, Waltham, Mass., USA). Signal intensity was calculated using the LAS3000 imaging system (Quansys Biosciences, West Logan, Utah, USA).

[2] = tested on: HER2:HER3 signaling activated by CD74-NRG1 fusion in EFM-19 cells; experiment: HER2:HER3 signaling activation by CD74-NRG1 (EFM-19 reporter cells, conditioned medium, immunoblotting); type: cell-based, human; details: EFM-19 cells treated 30 minutes with conditioned medium from H1299 cells expressing CD74-NRG1; FIG. 10A
Description: To determine whether cells expressing CD74-NRG1 cDNA secreted NRG1 ligands that activate HER2:HER3 intracellular signaling, EFM-19 breast cancer cells which express both the ERRB2/HER2 and ERBB3/HER3 proteins were used as reporter cells, as previously described (Wilson T. R., et al., Cancer Cell., 2011, 20, 158-72). NCI-H1299 cells transiently transfected with CD74-NRG1-expressing plasmids or empty (control) plasmids were washed twice with PBS and serum-starved overnight by incubation in a serum-free medium. After harvesting of the medium, centrifugation was performed at 4° C. for 5 minutes to remove cell debris. […] Then, whole-cell lysates were subjected to SDS-PAGE and immunoblotting. Cells were lysed in a RIPA buffer supplemented with Complete Protease and PhosSTOP Phosphatase Inhibitor Cocktail (Roche, Mannheim, Germany). Proteins were subjected to SDS-PAGE, followed by immunoblotting onto polyvinylidene difluoride membranes. The membranes were blocked for one hour with TBS supplemented with 0.1% Tween 20 and 1.0% BSA, and then probed with primary antibodies. After washing with TBS supplemented with 0.1% Tween 20, the membranes were incubated with horseradish peroxidase-conjugated anti-mouse or anti-rabbit secondary antibodies, and then visualized with an enhanced chemiluminescence reagent (Perkin Elmer, Waltham, Mass., USA). Signal intensity was calculated using the LAS3000 imaging system (Quansys Biosciences, West Logan, Utah, USA).

EZR-ERBB4 fusion protein = experiment: Constitutive activation of ERBB4 kinase by EZR-ERBB4 fusion and its inhibition (NIH3T3, immunoblotting); type: cell-based, mouse; details: NIH3T3 cells stably expressing EZR-ERBB4, serum-starved, treated for 2 hours; FIG. 10B
Description: Whole-cell lysates were subjected to immunoblotting.

TRIM24-BRAF fusion protein, sequence (P15056 with tags, fused parts or gaps): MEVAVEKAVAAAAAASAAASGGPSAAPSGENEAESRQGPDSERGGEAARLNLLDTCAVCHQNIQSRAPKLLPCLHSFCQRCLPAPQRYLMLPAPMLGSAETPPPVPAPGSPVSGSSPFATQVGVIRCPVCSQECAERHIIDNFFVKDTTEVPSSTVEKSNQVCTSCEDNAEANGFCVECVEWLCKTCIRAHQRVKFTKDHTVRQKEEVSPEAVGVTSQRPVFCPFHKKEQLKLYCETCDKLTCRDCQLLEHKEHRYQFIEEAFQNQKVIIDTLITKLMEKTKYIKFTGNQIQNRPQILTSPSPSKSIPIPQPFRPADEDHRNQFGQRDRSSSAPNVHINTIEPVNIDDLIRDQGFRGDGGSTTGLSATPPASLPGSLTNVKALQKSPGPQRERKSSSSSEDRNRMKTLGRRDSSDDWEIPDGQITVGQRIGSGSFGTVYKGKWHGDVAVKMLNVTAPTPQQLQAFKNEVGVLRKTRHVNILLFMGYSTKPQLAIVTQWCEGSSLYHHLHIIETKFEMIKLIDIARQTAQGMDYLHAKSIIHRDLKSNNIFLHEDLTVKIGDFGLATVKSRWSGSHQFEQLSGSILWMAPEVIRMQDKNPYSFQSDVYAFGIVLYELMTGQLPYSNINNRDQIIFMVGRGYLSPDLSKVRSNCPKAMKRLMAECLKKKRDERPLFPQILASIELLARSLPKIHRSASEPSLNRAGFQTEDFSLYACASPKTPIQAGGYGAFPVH

Row | Phosphorylation of ERBB4 (EZR-ERBB4 fusion protein) | Phosphorylation of ERK (EZR-ERBB4 fusion protein) | SMILES | ERK phosphorylation (activation) [1] | Phosphorylation of ERK [2] | Phosphorylation of HER2 (ERBB2) [2] | Phosphorylation of HER3 (ERBB3) [2]
1 |  |  | N#CC(=C(/N)Sc1ccccc1N)/C(C#N)=C(\N)Sc1ccccc1N [U0126] | suppressed |  |  | 
2 | suppressed | suppressed | CS(=O)(=O)CCNCc1ccc(-c2ccc3ncnc(Nc4ccc(OCc5cccc(F)c5)c(Cl)c4)c3c2)o1 [lapatinib] |  | suppressed | suppressed | suppressed

— patent US20150057335A1, “NOVEL FUSION GENES IDENTIFIED IN LUNG CANCER” (National Cancer Center, priority 2013, published 2015)
